Reference: patent US8486634B2, “Amplifying bisulfite-treated template” (Ambergen, Inc., priority 2007, dated 2013)

Target: T1, protein kinase Cα (PKCα) (Homo sapiens, UniProt P17252)
T1 construct: isolate and photo-release endogenous PKCα from the undiluted detergent fractionated HeLa cell extracts; endogenous in cells; host or cells: HeLa cells (ATCC)
Test: Phorbol ester (PMA) mediated PKCα sub-cellular translocation, measured by kinase activity after isolation with photocleavable antibodies
Assay type: cell-based
Conditions: cultured HeLa cells stimulated with 200 nM PMA for 5 min, detergent-fractionated, relative distribution based on kinase activity, n=4
Protocol: FIG. 20. Phorbol ester (PMA) mediated protein kinase Cα (PKCα) sub-cellular translocation as measured by functional activity following isolation with photocleavable antibodies. Cultured HeLa cells were stimulated with 200 nM PMA for 5 min and detergent fractionated into the cytosol and membrane compartments prior to isolation and purification with the photocleavable antibodies.
Cultured HeLa cells (ATCC; Manassas, Va.) were stimulated for 5 min with 200 nM Phorbol-12-Myristate-13-Acetate (PMA; EMD Biosciences, Inc., San Diego, Calif.) and subsequently detergent fractionated into sub-cellular compartments according to reported procedures [Ramsby et al. (1994) Electrophoresis 15, 265-277; Ramsby & Makowski. (1999) Methods Mol Biol 112, 53-66; Chiang et al. (2000) J Biochem Biophys Methods 46, 53-68]. PMA is a potent activator of PKCα and is well known to cause translocation of the kinase from the cytosolic to the membrane sub-cellular compartments [Ross & Joyner. (1997) Endothelium 5, 321-332; Bazan & Rapoport. (1996) J Pharmacol Toxicol Methods 36, 87-95; Yazlovitskaya & Melnykovych. (1995) Cancer Lett 88, 179-183]. […]

For `CCCCCCCCCCCCCC(=O)O[C@@H]1[C@@H](C)[C@@]2(O)[C@@H](C=C(CO)C[C@]3(O)C(=O)C(C)=C[C@@H]23)[C@@H]2C(C)(C)[C@]12OC(C)=O` [PMA, Phorbol-12-Myristate-13-Acetate], the “PKCα distribution, membrane” value (baseline 21±2% membrane) was 84±3% and the “PKCα distribution, cytosol” value (baseline 79±7% cytosol) was 16±4%.
